The values that follow come from patent US20060134048A1, “Reduction of hair growth” (priority 2004, published 2006).

SMILES strings stand for the structures.

One experiment concerns Human hair follicles. In words: Human hair follicle growth assay. The conditions noted are these: 24 hours pre-incubation with 0.1 mM caffeine, then laser 0.75W for 100 msec; hair shaft growth after four to six days. The class given is cell-based.
Another experiment deals with hamster flank organs. Kind of experiment: Golden Syrian Hamster assay. Format: in vivo, Golden Syrian hamsters.

Procedure for Human hair follicles: Human Hair Follicle Growth Assay:
Human hair follicles in growth phase (anagen) were isolated from face-lift tissue (obtained from plastic surgeons) under dissecting scope using a scalpel and watchmakers forceps. The skin was sliced into thin strips exposing 2-3 rows of follicles that could readily be dissected. Follicles were placed into 0.5 ml William's E medium (Life Technologies, Gaithersburg, Md.) supplemented with 2 mM L-glutamine, 10 μg/ml insulin, 10 ng/ml hydrocortisone, 100 units of penicillin, 0.1 mg/ml streptomycin and 0.25 μg/ml amphotericin B. The follicles were incubated in 24-well plates (1 follicle/well) at 37° C. in an atmosphere of 5% CO2 and 95% air. The HSP inhibitor or compound that promotes apoptosis is dissolved into dimethyl sulfoxide as 100-fold stock solution. […] The length of hair follicle was assessed using an image analysis software system. The growth of hair fiber was calculated by the subtracting the follicle length on day 0 from that determined on day 7.
Hair follicles were pre-incubated for 24 hours with 0.1 mM concentration of caffeine, and then some of the follicles were laser treated at 0.75W for 100 msec using a Coherent diode laser system. The length of each follicle was measured and the follicles then were placed in a 37° C. incubator for four to six days. Following incubation the hair shaft growth was measured.
Procedure for hamster flank organs: To evaluate the effectiveness of a composition in reducing hair growth (including when used in conjunction with heating), the flank organs of each of a group of hamsters are depilated by applying a thioglycolate based chemical depilatory (Surgex) and/or shaved. To one organ of each animal 10 μl. of vehicle alone once a day is applied, while to the other organ of each animal an equal amount of vehicle containing the HSP inhibitor or compound that promotes apoptosis under evaluation is applied. After three weeks of topical applications (one application per day for five days a week), with heating at a selected time(s) if the composition is used in conjunction with heating) the flank organs are shaved and the amount of recovered hair (hair mass) from each is weighed. Percent-reduction of hair growth is calculated by subtracting the hair mass (mg) value of the test compound treated side from the hair mass value of the vehicle treated side; the delta value obtained is then divided by the hair mass value of the vehicle treated side, and the resultant number is multiplied by 100. A composition including a vehicle 15% DMSO, 65% ethanol, 10% propylene glycol, and 10% di-propylene glycol and 5% quercetin by weight was tested in the Golden Syrian Hamster assay. […]

As for `Cn1c(=O)c2c(ncn2C)n(C)c1=O` [caffeine], the “reduction in hair growth compared with the control group” value in the experiment on Human hair follicles is listed as “significant reduction in hair growth”.

With `O=c1c(O)c(-c2ccc(O)c(O)c2)oc2cc(O)cc(O)c12` [quercetin], the hair growth inhibition in the experiment on hamster flank organs (5% quercetin for four days prior to 15W/0.75 sec laser, compared to flank organs given the same laser pulse without quercetin pretreatment) is given as 36%; in the experiment on hamster flank organs (5% quercetin topical only, three weeks, compared to vehicle control flank organs), 15%.
